Measurements reported in patent US20260007651A1, “Effect of YEL002 on Conditions and Diseases” (RadMit, Inc., priority 2022, published 2026).

Tested on: lymphoma
Experiment: Lymphoma incidence in mice (National Institute of Health experiment)
Type: in vivo
Conditions: reduced from 10-20%
Experimental: This was observed after treating mice right after birth, if humans are treated later in life it is possible that only 10 or 5 years are added and probably more for DNA repair deficient diseases like ataxia telangiectasia (ATM) which is still very substantial.

**Q.** For `COc1ccc2cc(-c3nc4ccc(C)cn4c3NCc3ccco3)c(=O)[nH]c2c1` [YEL002], which “spontaneous frequency of lymphoma” value is on record?
**A.** 0%
